Results reported in US5660842A, “Inhibition of helicobacter” (Bristol-Myers Squibb Company, priority 1995, dated 1997).
In brackets after ≈: the same amount, converted by molar mass. Read-outs that look alike come from different tables or passages of the source.

Key:
Helicobacter pylori [1] = experiment: Minimal inhibitory concentration (MIC) for H. pylori (Example 5); format: cell-based
Helicobacter pylori [2] = format: cell-based, Helicobacter pylori (HP-2, HP-4, HP-5); details: for Frequency of innate resistance compared with MG and FFA: H. pylori strains, Table 7; for Frequency of resistant mutants (number of spontaneous mutants): ~1 × 10^8 CFU; for Frequency of resistance / Resistant variants of H. pylori: concentrations as low as two times the MIC
Helicobacter pylori [3] = experiment: Viability of H. pylori after 1 hour in prototype nutritional compositions containing FFA or MG (Example 3, Table 6); format: cell-based, Helicobacter pylori (ATCC 43629); details: for Change in viable cell number: 1 hour; for Inhibition in nutritional compositions: levels as high as 20 mM; for Reductions in viability of H. pylori: 10 mM for 1 hour
Helicobacter pylori [4] = experiment: Viability of H. pylori after 1 hour with FFA or MG in Brucella broth (plate count, Example 1, Table 1); format: cell-based; details: for Effect on test strains of H. pylori: up to 5 mM, three strains; for Reduction in number of viable H. pylori cells (CFU/mL): 1 hour, 37° C.; for Reductions in cell numbers: test strains HP-2, HP-4, HP-5, 1 hour incubation
H. pylori = details: reported in literature; cited from earlier work
Helicobacter felis = experiment: H. felis infected mouse model (urease activity and histology of gastric tissue); format: in vivo, Helicobacter felis in adult mice
Source text: The restricted host range of Helicobacter pylori has hampered the development of a widely accepted animal model of H. pylori infection. […] Other animal models of Helicobacter infection have been described based on bacteria similar to H. pylori that have been found in the gastric mucosa of various animals such as the ferret, cat, and monkey. One such model involves the inoculation of adult mice with Heicobacter felis (Fox, J. G., J. C. Murphy, N. S. Taylor, A. Lee, Z. Kabob, and L. Pappo., Local and systemic immune responses in murine Helicobacter felis active chronic gastritis., Infect. Immun. 1993; 61:2309-2315; Dick-Hegedus, E., and A. Lee. Use of a mouse model to examine anti-Helicobacter pylori agents., Scand. J. Gastroenterol. 1991;26:909-915). Preliminary studies were conducted to evaluate the anti-infective activity of MG and FFA against Helicobacter infection in vivo using the H. felis infected mouse model. […] Two weeks later mice were randomized into treatment groups and maintained on liquid diet alone or the same diet supplemented with C10:0 MG or C12:0 MG at a level of 1,5, or 10 mM. Gastric colonization with H. felis in mice was determined 1 and 3 weeks later by evaluation of urease activity ([…]. Barody, A. Gal, and A. Lee., Campylobacter pyloridis gastritis I: Detection of urease as a marker of bacterial colonization and gastritis. Am. J. Gastroenterol. 1987; 82: 292-296) and histopathological assessment of bacterial infection in gastric tissues.

[5] = Helicobacter pylori, Table 7, read-out: MIC
[6] = Nutrament (Formulation II), 20 mM
[7] = Sustacal (Formulation I), 10 mM
[8] = Sustacal (Formulation I), 20 mM
[9] = Ultracal (Formulation III), 5 mM
[10] = Ultracal (Formulation III), 10 mM
[11] = Ultracal (Formulation III), 20 mM
[12] = Nutrament (Formulation II), 5 mM
[13] = Nutrament (Formulation II), 10 mM

SMILES | Frequency of resistant mutants (number of spontaneous mutants) (Helicobacter pylori [2]; strain 43579, 2 × MIC) | Frequency of resistant mutants (number of spontaneous mutants) (Helicobacter pylori [2]; strain 43579, 5 × MIC) | Frequency of resistant mutants (number of spontaneous mutants) (Helicobacter pylori [2]; strain 43579, 10 × MIC) | Frequency of resistant mutants (number of spontaneous mutants) (Helicobacter pylori [2]; strain 43629, 2 × MIC) | Frequency of resistant mutants (number of spontaneous mutants) (Helicobacter pylori [2]; strain 43629, 5 × MIC) | Frequency of resistant mutants (number of spontaneous mutants) (Helicobacter pylori [2]; strain 43629, 10 × MIC) | Frequency of resistant mutants (number of spontaneous mutants) (Helicobacter pylori [2]; strain 49503, 2 × MIC) | Frequency of resistant mutants (number of spontaneous mutants) (Helicobacter pylori [2]; strain 49503, 5 × MIC) | Frequency of resistant mutants (number of spontaneous mutants) (Helicobacter pylori [2]; strain 49503, 10 × MIC) | Change in viable cell number (Helicobacter pylori [3]; Sustacal (Formulation I), 5 mM) | Change in viable cell number (Helicobacter pylori [3]; [7]) | Change in viable cell number (Helicobacter pylori [3]; [9]) | Change in viable cell number (Helicobacter pylori [3]; [10]) | Change in viable cell number (Helicobacter pylori [3]; [11]) | Reductions in viability of H. pylori (Helicobacter pylori [3]) | Change in viable cell number (Helicobacter pylori [3]; [12]) | Change in viable cell number (Helicobacter pylori [3]; [13]) | Reductions in cell numbers (Helicobacter pylori [4]) | also measured
CN(C)C1C(=O)C(C(N)=O)=C(O)C2(O)C(=O)C3=C(O)c4c(O)cccc4C(C)(O)C3CC12 (centres unmarked) [tetracycline, reference compound] | TNTC | TNTC | < 1 | > 1000 | 242 | < 1 | 148 | < 1 | < 1 |  |  |  |  |  |  |  |  |  | MIC (Helicobacter pylori [1]; [5]): 0.1 µg/mL (≈ 0.225 µM); Frequency of innate resistance compared with MG and FFA (Helicobacter pylori [2]): consistently higher
CCCCCCCCCC(=O)O [Capric Acid, capric acid, reference compound] |  |  |  |  |  |  |  |  |  | 0.00 LOG CFU/mL | 0.00 LOG CFU/mL | 0.03 LOG CFU/mL | -0.03 LOG CFU/mL | -0.33 LOG CFU/mL |  |  |  |  | Change in viable cell number (Helicobacter pylori [3]; [6]): -0.08 LOG CFU/mL; Change in viable cell number (Helicobacter pylori [3]; [8]): -0.09 LOG CFU/mL; Inhibition in nutritional compositions (Helicobacter pylori [3]): not inhibitory; Effect on test strains of H. pylori (Helicobacter pylori [4]): None of the test strains of H. pylori were affected
CCCCC/C=C\C/C=C\C/C=C\C/C=C\CCCC(=O)O [arachidonic acid] |  |  |  |  |  |  |  |  |  |  |  |  |  |  |  |  |  |  | Inhibitory effect on H. pylori (H. pylori): inhibitory effect on H. pylori
CC/C=C\C/C=C\C/C=C\CCCCCCCC(=O)O [ω-3 linolenic acid] |  |  |  |  |  |  |  |  |  |  |  |  |  |  |  |  |  |  | Inhibitory effect on H. pylori (H. pylori): inhibitory effect on H. pylori
CCCCCCCCCC(=O)OCC(O)CO (centres unmarked) [Monocaprin, monocaprin] | < 1 | < 1 | < 1 | < 1 | < 1 | < 1 | < 1 | < 1 | < 1 | -3.78 LOG CFU/mL | -3.91 LOG CFU/mL | -4.40 LOG CFU/mL | -4.40 LOG CFU/mL |  | ≥ 1000 fold | -4.00 LOG CFU/mL | -4.14 LOG CFU/mL | ≥ 10,000 fold | Histology score (Helicobacter felis; 10 mM in diet, three weeks): remained lower; Numbers of urease positive and histology positive mice (Helicobacter felis; diet, three weeks after initiation of treatment): comparable to the number observed in the infected control group (~80-100%); Number of urease and histology positive mice (Helicobacter felis; liquid diet with MG at 1, 5 or 10 mM, 1 week of treatment): dose-related reductions in the number of urease and histology positive mice; Reduction in H. felis infection (Helicobacter felis; second study, daily intragastric gavage 1.4 or 2.8 mg/day, 1 or 3 weeks): no significant reduction in H. felis infection; Level of infection (histology score) (Helicobacter felis; urease positive mice vs control, diet, 1 week): Lower levels of infection; MIC (Helicobacter pylori [1]; Table 7): 60.0 µg/mL (≈ 244 µM); MIC (Helicobacter pylori [1]; preliminary studies): approximately 60 mg/L; Reduction in number of viable H. pylori cells (CFU/mL) (Helicobacter pylori [4]; ATCC #43579, 1 mM): > 100,000 fold; Reduction in number of viable H. pylori cells (CFU/mL) (Helicobacter pylori [4]; ATCC #43629, 1 mM): > 60,000 fold; Reduction in number of viable H. pylori cells (CFU/mL) (Helicobacter pylori [4]; ATCC #49503, 1 mM): > 30,000 fold; Frequency of resistance (Helicobacter pylori [2]): < 1×10^-8; Resistant variants of H. pylori (Helicobacter pylori [2]): no resistant variants of H. pylori were found
CCCCCCCCCCCC(=O)OCC(O)CO (centres unmarked) [Monolaurin, monolaurin] | < 1 | < 1 | < 1 | < 1 | < 1 | < 1 | < 1 | < 1 | < 1 | -3.41 LOG CFU/mL | -3.77 LOG CFU/mL | -3.04 LOG CFU/mL | -4.40 LOG CFU/mL |  | ≥ 1000 fold | -4.23 LOG CFU/mL | -3.87 LOG CFU/mL | ≥ 10,000 fold | MIC (Helicobacter pylori [1]; Table 7): 15.0 µg/mL (≈ 54.7 µM); MIC (Helicobacter pylori [1]; preliminary studies): ~15 µg/mL (≈ 54.7 µM); Reduction in number of viable H. pylori cells (CFU/mL) (Helicobacter pylori [4]; ATCC #43579, 1 mM): > 100,000 fold; Reduction in number of viable H. pylori cells (CFU/mL) (Helicobacter pylori [4]; ATCC #43629, 1 mM): > 50,000 fold; Reduction in number of viable H. pylori cells (CFU/mL) (Helicobacter pylori [4]; ATCC #49503, 1 mM): > 30,000 fold; Frequency of resistance (Helicobacter pylori [2]): < 1×10^-8; Resistant variants of H. pylori (Helicobacter pylori [2]): no resistant variants of H. pylori were found
Cc1ncc([N+](=O)[O-])n1CCO [metronidazole, reference compound] |  |  |  | 791 | < 1 | < 1 | > 1000 | 48 | < 1 |  |  |  |  |  |  |  |  |  | MIC (Helicobacter pylori [1]; [5]): 2 µg/mL (≈ 11.7 µM); Frequency of innate resistance compared with MG and FFA (Helicobacter pylori [2]): consistently higher; Frequency of resistant mutants (number of spontaneous mutants) (Helicobacter pylori [2]; strain 43679 (so in the source), 2 × MIC): > 1000; Frequency of resistant mutants (number of spontaneous mutants) (Helicobacter pylori [2]; strain 43679 (so in the source), 5 × MIC): 862; Frequency of resistant mutants (number of spontaneous mutants) (Helicobacter pylori [2]; strain 43679 (so in the source), 10 × MIC): 518
CCCCCCCC(=O)O [Caprylic Acid, caprylic acid, reference compound] |  |  |  |  |  |  |  |  |  | 0.00 LOG CFU/mL | 0.00 LOG CFU/mL | 0.06 LOG CFU/mL | -0.20 LOG CFU/mL | -0.81 LOG CFU/mL |  |  |  |  | Change in viable cell number (Helicobacter pylori [3]; [6]): -0.21 LOG CFU/mL; Change in viable cell number (Helicobacter pylori [3]; [8]): 0.02 LOG CFU/mL; Inhibition in nutritional compositions (Helicobacter pylori [3]): not inhibitory; Effect on test strains of H. pylori (Helicobacter pylori [4]): None of the test strains of H. pylori were affected
CCCCCCCC(=O)OCC(O)CO (centres unmarked) [Monocaprylin, monocaprylin] |  |  |  |  |  |  |  |  |  | 0.37 LOG CFU/mL | -3.44 LOG CFU/mL | 0.00 LOG CFU/mL | -3.64 LOG CFU/mL | -4.46 LOG CFU/mL | ≥ 1000 fold | -4.23 LOG CFU/mL | -4.23 LOG CFU/mL | ≥ 1000 fold | Reduction in number of viable H. pylori cells (CFU/mL) (Helicobacter pylori [4]; ATCC #43579, 5 mM): > 4,000 fold; Reduction in number of viable H. pylori cells (CFU/mL) (Helicobacter pylori [4]; ATCC #43629, 5 mM): > 3,000 fold; Reduction in number of viable H. pylori cells (CFU/mL) (Helicobacter pylori [4]; ATCC #49503, 5 mM): > 40,000 fold
